{"source": "paper PMC7055300", "about": "“Theileria parasites subvert E2F signaling to stimulate leukocyte proliferation” (Scientific Reports, 2020)", "key": {"[1]": {"tested_on": "BL20/TBL20 cells", "assay_type": "cell-based, bovine", "details": "HLM006474 10 μM; data not shown", "method": "Since the LXCXE peptide can induce E2F activity, we investigated whether it could, on its own, increase bovine leukocyte proliferation. To extend our observations to T. annulata-infected leukocytes, we incubated T. annulata-infected B cells with WT or mutated LXNXE peptides and counted cell numbers at 24 h and 48 h.\nThe amino acid sequence of RB-1 based on the parasite sequence ([…]) was synthesized. Cysteine in wild type RB1 was replaced by an Asparagine (N; in bold […]). The penetrating peptide to facilitate cell entry is underlined. 3 different concentrations of peptides were used for 2 h to determine the minimum effective concentration (1 μM) with minimum toxic effect, which was used to perform each experiment as indicated."}, "[2]": {"tested_on": "uninfected BL20 cells", "assay": "Cell proliferation, uninfected B cells (BL20), hemacytometer count", "assay_type": "cell-based, bovine", "details": "uninfected BL20, HLM006474 10 μM in DMSO, average of 3 independent experiments", "method": "(a) TpMD409B.2 cells were transfected with E2F-luc (WT = wild-type E2F binding construct), or mutated E2F-luc constructs (labeled ‘mutated’) together with a CMV-lacZ plasmid to normalize for transfection efficiency. Luciferase and β-galactosidase activities were measured 24 hrs after transfection. E2F-luc relative luciferase activity normalized to mE2F-luc. Shown is the average of 3 independent experiments with standard deviation. BL20 or TBL20 cells were treated with (b) 1μM of penetrating peptides ([…]-K(FITC)) containing the TpGcpE LXCXE motif, or an LXNXE control ([…]-K(FITC)) or (c) E2F inhibitor or DMSO control, and then counted by hemacytometer after the indicated timepoints. Shown is the average of 3 independent experiments with standard deviation. Then, either (d) virulent Ode T. annulata-transformed macrophages, or (e) BL20/TBL20 T. annulata-transformed cells were transfected with E2F-luc plasmid (or mutated E2F-luc as in (c)) and incubated for 24 hrs at 37 °C. Then, cells were treated with penetrating peptides as in (b) for 2 hrs and luciferase activity was quantified. Data shown are representative of three independent experiments done with biological duplicates, with mean + standard deviation (*P-value < 0.05 compared to untreated; ^‡P-value < 0.05 compared to its respective BL20 control). […]"}, "[3]": {"tested_on": "T. annulata-infected TBL20 cells", "assay": "Cell proliferation, T. annulata-infected B cells (TBL20), hemacytometer count", "assay_type": "cell-based, bovine", "details": "T. annulata-infected TBL20, HLM006474 10 μM in DMSO, average of 3 independent experiments", "method": "(a) TpMD409B.2 cells were transfected with E2F-luc (WT = wild-type E2F binding construct), or mutated E2F-luc constructs (labeled ‘mutated’) together with a CMV-lacZ plasmid to normalize for transfection efficiency. Luciferase and β-galactosidase activities were measured 24 hrs after transfection. E2F-luc relative luciferase activity normalized to mE2F-luc. Shown is the average of 3 independent experiments with standard deviation. BL20 or TBL20 cells were treated with (b) 1μM of penetrating peptides ([…]-K(FITC)) containing the TpGcpE LXCXE motif, or an LXNXE control ([…]-K(FITC)) or (c) E2F inhibitor or DMSO control, and then counted by hemacytometer after the indicated timepoints. Shown is the average of 3 independent experiments with standard deviation. Then, either (d) virulent Ode T. annulata-transformed macrophages, or (e) BL20/TBL20 T. annulata-transformed cells were transfected with E2F-luc plasmid (or mutated E2F-luc as in (c)) and incubated for 24 hrs at 37 °C. Then, cells were treated with penetrating peptides as in (b) for 2 hrs and luciferase activity was quantified. Data shown are representative of three independent experiments done with biological duplicates, with mean + standard deviation (*P-value < 0.05 compared to untreated; ^‡P-value < 0.05 compared to its respective BL20 control).\nThe TpMD409.B2 cell line is a T. parva Muguga-infected B-cell clone (B2) whose establishment, phenotypic characteristics and culture conditions have been described[25]–[27]. BL20 cells are a retrovirus-transformed B cell line isolated from an infected cow. To eliminate the parasite, cells were treated for the indicated time with buparvaquone (50 ng/ml, 1 mg/ml stock in ethanol; Sigma). To inhibit E2F activity, cells were treated for the indicated time with HLM006474 (10 μM in DMSO, Sigma), or DMSO (10μM; Sigma) as a control. The T. annulata-infected cell lines BL20 (B cell), as well as Ode (macrophage) cell lines are well described and characterized.\nThe amino acid sequence of RB-1 based on the parasite sequence ([…]) was synthesized. Cysteine in wild type RB1 was replaced by an Asparagine (N; in bold […]). The penetrating peptide to facilitate cell entry is underlined."}, "[4]": {"tested_on": "T. parva-transformed TpMD409.B2 cells", "assay": "Western blot of RB/E2F pathway proteins after parasite killing", "assay_type": "cell-based, bovine", "details": "buparvaquone 50 ng/ml", "text": "The discovery of these peptides led us to investigate the particular RB/E2F signaling components in Theileria-infected cells. Eight E2F transcription factor genes have been identified in mammals, which can be divided into two groups: activators (E2F-1, E2F-2, E2F-3a), which can bind RB, and repressors (e.g. E2F-3b, E2F-4, E2F-5), which can bind RB, p107 and p130. The balance between the activator and repressor E2Fs seems to be primarily controlled by the phosphorylation status of the associated pocket proteins to which they bind. E2F interactions with the Dimerization Partner (DP) ligands are also important for regulating E2F transcription factor activity. We used Western blot to compare the levels of RB family, E2F, and DP-1 protein between T. parva-transformed cells that were left untreated with those treated with buparvaquone to kill the parasite and induce an arrest in host cell proliferation. By comparing expression levels between the buparvaquone-treated and untreated groups, we can determine parasite-dependent changes in the expression levels of these proteins. […] These faster migrating bands likely correspond to hypophosphorylated, proliferation-suppressive forms of RB and p130, at 24 h and 48 h after treatment with buparvaquone.\nFigure 2 RB/E2F signaling is activated by Theileria parasites. (a) Western blot analysis (left) of E2F-1, E2F-3 E2F-4, DP-1, pRB, and p130 expression in TpMD409B.2 cells, either left untreated (−), or treated (+) for 24 h and 48 h with buparvaquone (BQ), including band intensity quantification (right). Shown are representatives of three independent experiments. (b) E2F DNA binding activity in TpMD409B.2 cells was assayed by EMSA using gP32- labeled double-stranded oligonucleotide spanning E2F binding sites from the dhfr gene promoter. Left panel, nuclear extracts from TpMD409B.2 cells were incubated with γP32-labeled probe in absence or presence of a 100 fold molar excess of unlabeled wild type (WT), or mutated (MUT) double-stranded oligonucleotide. Binding reactions were resolved by non-denaturing polyacrylamide gel, which was processed afterwards for autoradiography. Right panel, EMSA analysis of E2F DNA binding activity in nuclear extracts from untreated, proliferating TpMD409B.2 cells (−) and TpMD409B.2 cells treated for 24 and 48 h with the parasiticidal drug buparvaquone (+). Arrows indicate E2F in complex with RB family proteins (Complexes) or free E2F protein (Free). (c) Flow cytometric analysis of BrdU incorporation and DNA content in TpMD409B.2 cells, either left untreated (control), or treated with buparvaquone for 24 h and 48 h. Shown is a representative of three independent experiments. […]"}, "[5]": {"tested_on": "T. parva-transformed TpMD409.B2 cells", "assay": "Flow cytometric BrdU incorporation", "assay_type": "cell-based, bovine", "details": "untreated vs buparvaquone-treated, 24 h and 48 h", "text": "The discovery of these peptides led us to investigate the particular RB/E2F signaling components in Theileria-infected cells. Eight E2F transcription factor genes have been identified in mammals, which can be divided into two groups: activators (E2F-1, E2F-2, E2F-3a), which can bind RB, and repressors (e.g. E2F-3b, E2F-4, E2F-5), which can bind RB, p107 and p130. The balance between the activator and repressor E2Fs seems to be primarily controlled by the phosphorylation status of the associated pocket proteins to which they bind. E2F interactions with the Dimerization Partner (DP) ligands are also important for regulating E2F transcription factor activity. We used Western blot to compare the levels of RB family, E2F, and DP-1 protein between T. parva-transformed cells that were left untreated with those treated with buparvaquone to kill the parasite and induce an arrest in host cell proliferation. By comparing expression levels between the buparvaquone-treated and untreated groups, we can determine parasite-dependent changes in the expression levels of these proteins. […]\nFigure 2 RB/E2F signaling is activated by Theileria parasites. (a) Western blot analysis (left) of E2F-1, E2F-3 E2F-4, DP-1, pRB, and p130 expression in TpMD409B.2 cells, either left untreated (−), or treated (+) for 24 h and 48 h with buparvaquone (BQ), including band intensity quantification (right). […]"}, "[6]": {"tested_on": "E2F binding sites from the dhfr gene promoter; TpMD409.B2 nuclear extracts", "assay": "E2F DNA binding activity by EMSA", "assay_type": "cell-based, bovine", "details": "buparvaquone 50 ng/ml, 24 h and 48 h", "description": "(a) Western blot analysis (left) of E2F-1, E2F-3 E2F-4, DP-1, pRB, and p130 expression in TpMD409B.2 cells, either left untreated (−), or treated (+) for 24 h and 48 h with buparvaquone (BQ), including band intensity quantification (right). Shown are representatives of three independent experiments. (b) E2F DNA binding activity in TpMD409B.2 cells was assayed by EMSA using gP32- labeled double-stranded oligonucleotide spanning E2F binding sites from the dhfr gene promoter. Left panel, nuclear extracts from TpMD409B.2 cells were incubated with γP32-labeled probe in absence or presence of a 100 fold molar excess of unlabeled wild type (WT), or mutated (MUT) double-stranded oligonucleotide. Binding reactions were resolved by non-denaturing polyacrylamide gel, which was processed afterwards for autoradiography. […]"}, "[7]": {"molecular_target": "T1, Retinoblastoma-1 (RB) pocket domain (Homo sapiens, UniProt P06400)", "T1 construct": "Recombinant, purified RB pocket domain was coupled to the surface of the sensor chip; purchased LDBiopharma HTF-1035", "T1 sequence (P06400 373-771 limits assumed)": "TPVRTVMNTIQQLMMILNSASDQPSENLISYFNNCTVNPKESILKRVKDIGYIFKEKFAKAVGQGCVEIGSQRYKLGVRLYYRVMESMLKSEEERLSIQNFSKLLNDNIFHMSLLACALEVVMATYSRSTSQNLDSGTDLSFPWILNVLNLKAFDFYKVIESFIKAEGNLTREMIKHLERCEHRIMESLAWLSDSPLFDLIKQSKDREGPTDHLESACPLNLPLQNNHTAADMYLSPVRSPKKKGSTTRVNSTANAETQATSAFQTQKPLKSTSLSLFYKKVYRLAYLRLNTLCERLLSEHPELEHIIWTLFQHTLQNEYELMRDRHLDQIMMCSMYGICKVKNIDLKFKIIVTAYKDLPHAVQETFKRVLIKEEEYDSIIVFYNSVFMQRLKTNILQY", "assay": "Surface plasmon resonance binding to RB pocket domain", "details": "SPR, RB pocket domain on sensor chip; sequence-scrambled peptides as negative controls", "text": "Since the proliferation of T. parva-infected host cells is thought to be critical for the pathogenesis of infection, we investigated whether synthesized peptides, each 9 to 19 amino acids long and containing these 15 T. parva motifs, could bind to RB (Supplementary Table 1). Surface plasmon resonance (SPR) was used to screen these peptides for specific RB1 pocket domain-binding activity. Recombinant, purified RB pocket domain was coupled to the surface of the sensor chip, and purified peptides were introduced at various concentrations to quantify kinetics if response curves indicated a detectable protein-protein interaction. Sequence-scrambled peptides were used as negative controls to exclude false-positive signals.\nImmobilization of human RB1 protein to CM5 chip\nSurface preparation. […]\nKinetics analysis of binding. […] The analytes (60 µl each, 0–25 µM in HBS-EP buffer with 0.05% P20) were injected into flow cell and the association of analyte and ligand were recorded respectively by surface plasmon resonance (SPR) with a Biacore T200 (Biacore, Inc., New Jersey). […]\nData analysis. Sensorgrams of the interaction generated by the instrument were analyzed using the software BIAeval 3.2 (Biacore Inc., New Jersey). […]"}}, "note": "Entries after “also recorded” stand apart in the source; their conditions may differ.", "data": [{"molecule": "CCOc1ccc(C(Nc2ccccn2)c2ccc3ccc(C)nc3c2O)cc1C", "note": "(stereo not shown) [HLM006474, reference compound]", "values": [{"measurement": "dependence of the effect on cell death", "setting": "[1]", "result": "not dependent on cell death"}, {"measurement": "proliferation with E2F inhibitor", "setting": "[2]", "result": "not uninfected BL20 cells"}, {"measurement": "proliferation with E2F inhibitor", "setting": "[2]; listed as HLM0006474", "result": "not uninfected bovine B cell lines"}, {"measurement": "proliferation with E2F inhibitor", "setting": "[3]", "result": "specifically reduced the proliferation of T. annulata-infected TBL20 cells"}, {"measurement": "proliferation with E2F inhibitor", "setting": "[3]; listed as HLM0006474", "result": "specifically inhibit the proliferation of T. annulata-infected"}]}, {"molecule": "CC(C)(C)[C@H]1CC[C@H](CC2=C(O)C(=O)c3ccccc3C2=O)CC1", "note": "[buparvaquone]", "values": [{"measurement": "pRB and p130 migration", "setting": "[4]; 24 h and 48 h, vs untreated", "result": "migrate faster in parasite-killed TpMD409.B2 cells than in untreated cells"}, {"measurement": "E2F-4 protein levels", "setting": "[4]; 48 h", "result": "E2F-4 levels remain unaltered"}, {"measurement": "slower-migrating DP-1 band", "setting": "[4]; 48 h", "result": "a slower-migrating DP-1 band increases"}, {"measurement": "E2F-1 and E2F-3 protein levels", "setting": "[4]; after 48 h but not 24 h", "result": "E2F-1 and E2F-3 protein levels decrease"}, {"measurement": "proliferation, dependence on the parasite", "setting": "[5]", "result": "Proliferation was also confirmed to be dependent on the parasite"}, {"measurement": "E2F DNA binding activity", "setting": "[6]", "result": "overall decrease in E2F DNA binding activity"}, {"measurement": "slow and intermediate complexes bound to E2F-dependent promoter", "setting": "[6]", "result": "increase in complexes migrating at slow and intermediate speed bound to an E2F-dependent promoter"}]}, {"molecule": "RDELQGVIQLLYDRYNKYI [TpMuguga_02g02355, SPR screening peptide […] with an LXXLFD motif from TpMuguga_02g02355]", "values": [{"measurement": "RB binding in words", "setting": "[7]", "result": "bound the RB pocket domain with nanomolar affinity; also recorded: bind RB in a sequence-specific fashion"}]}]}
